From patent US20250257034A1, “INDOLE DERIVATIVES AS SEROTONERGIC AGENTS USEFUL FOR THE TREATMENT OF DISORDERS RELATED THERETO” (priority 2023, published 2025) come the findings set out here.

The target of the assay is T1, human 5-HT1A receptor (Homo sapiens, UniProt P08908).
T1 sequence (P08908 1-422): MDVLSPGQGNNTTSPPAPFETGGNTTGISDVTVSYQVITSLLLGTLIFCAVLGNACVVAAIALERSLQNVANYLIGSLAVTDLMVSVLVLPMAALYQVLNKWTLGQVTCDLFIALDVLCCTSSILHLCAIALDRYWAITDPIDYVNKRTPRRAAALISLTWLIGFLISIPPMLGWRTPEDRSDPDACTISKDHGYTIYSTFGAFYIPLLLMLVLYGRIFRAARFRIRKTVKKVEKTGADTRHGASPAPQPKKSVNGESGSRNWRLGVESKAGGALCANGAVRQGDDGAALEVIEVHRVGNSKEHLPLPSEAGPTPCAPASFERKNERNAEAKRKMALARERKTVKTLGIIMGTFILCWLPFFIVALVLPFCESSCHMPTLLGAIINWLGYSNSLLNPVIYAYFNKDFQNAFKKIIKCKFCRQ
The assay is described as follows: Human 5-HT1A functional FLIPR assay (agonist mode). It counts as cell-based. Also on record: expressed in transfected cells; host or cells: HTR1A&Gα15-CHO. As to the method:
The potential excitatory effects of compounds targeting on 5-hydroxytryptamine receptor 1A (5-HT1A) under agonist mode was assessed.
HTR1A&Gα15-CH0 cells were cultured in DMEM/F12 medium containing 10% dialyzed FBS, 1×penicillin-streptomycin and 600 μg/mL Hygromycin B. The cells were passaged about three times a week, maintained between ˜30% to ˜90% confluence.
1. The cell culture medium (DMEM/F12 medium containing 10% dialyzed FBS, 1×penicillin-streptomycin and 600 μg/mL Hygromycin B), TrypLE™ Express and DPBS was warmed to R.T. in advance.
2. The cell culture medium was removed from flask. Washed cells with DPBS.
3. 1 mL TrypLE™ Express was added to the flask, mixed well by gentle shaking and cells were incubated at 37° C. for a few minutes.
4. The cells were checked for morphological change under microscope, the digestion was stopped by adding 2 mL cell culture medium to the flask when most of cells turned to round.
5. The cell suspension was transferred into a 15 mL centrifuge tube, and then centrifuged at 1,200 rpm for 5 minutes.
6. The supernatant was removed. The cell pellets were resuspended with 2 mL cell culture medium.
7. The cell density was counted using a cell counter.
8. Cells were diluted to 4×10^5/mL with cell culture medium.
9. 30 μL/well cell suspensions were added into a 384-well cell plate (the cell density was 12,000 cells/well).
10. The cell plate was incubated overnight at 37° C., 5% (v/v) CO2.
1. On the day of experiments, culture medium was removed from the cell plate.
2. 10 μL of assay buffer (20 mM HEPES, in 1x HBSS, pH 7.4) was added to each well of the cell plate.
3. 2×dye solution was prepared following the manufacturer's instruction of the FLIPR® Calcium 6 assay kit: • i. The dye was diluted with assay buffer. • ii. probenecid was added to the final concentration of 5 mM. • iii. Vortexed vigorously for I-2 minutes, adjust pH to 7.4.
4. 10 μL of 2×dye solution was added to each well of the cell plate.
5. The cell plate was placed on plate shaker, followed by shaking at 600 rpm for 2 minutes.
6. The plate was incubated at 37° C. for 2 hours followed by an additional 15-minute incubation at 25° C.
1. Serotonin was prepared to the concentration of 10 mM with DMSO, 3-folds serial dilutions were performed with DMSO.
2. Prepared the test compound to the concentration of 10 mM with DMSO, preform 3-folds serial dilutions with DMSO.
3. The compounds were added to a 384-well compound source plate.
4. 90 nL/well of serial diluted compounds were transferred from source plate to a 384-well compound plate by using an Echo.
5. 30 μL/well of assay buffer was added to the compound plate.
6. The plate was mixed on-plate shaker for 2 minutes.
1. After the cells incubated with dye solution, the cell plate, compound plate containing 3×compounds and F LIP R tips were placed into F LIP R.
2. 10 μL of 3×compounds were transferred from the compound plate to the cell plate by F LIP R.
3. The plate was read for 160 sec with 1 sec interval to obtain the data of agonist mode.
1. The normalized fluorescence reading (RFU) was calculated as shown below, wherein Fmax and Fmin stand for maximum and minimum of calcium signal during defined time window:
2. EC50 was calculated by fitting RFU against log of compound concentrations with Hill equation using XLfit.
HTR1A&Gα15-C H0 cells were cultured in DMEM/F 12 medium containing 10% dialyzed FBS, 1x penicillin-streptomycin and 600 μg/mL Hygromycin B. The cells were passaged about three times a week, maintained between ˜30% to ˜90% confluence.
1. The cell culture medium (DMEM/F 12 medium containing 10% dialyzed FBS, 1x penicillin-streptomycin and 600 μg/mL Hygromycin B), TrypLE™ Express and DPBS was warmed to R.T. in advance.
7. The cell density was counted using cell counter.
9. 30 μL/well cell suspensions were added into a 384-well cell plate (The cell density was 12,000 cells/well).
3. 2×dye solution was prepared following the manufacture's instruction of the F LIP R® Calcium 6 assay kit: • i.

pEC50: −log10 of the molar value. Like-named read-outs stand apart in the source and are kept apart here.

What is called pEC50 is −log10 of the EC50, conventionally taken in molar units.

On to `COc1ccc2[nH]cc(CCN(C)CCOC(F)F)c2c1` [Compound I-71, 2-(Difluoromethoxy)-N-(2-(5-methoxy-1H-indol-3-yl)ethyl)-N-methylethan-1-amine], for which the “RFU@10 μM” value (RFU=Fmax−Fmin (Table 47)) was 3,087 RFU. For the same compound, under “FLIPR calcium, agonist mode, HTR1A&Gα15-CHO cells (Table 47), read-out: h5-HT1A, EC50”, the pEC50 is 5.73.
`CN(CCOC(F)F)CCc1c[nH]c2ccccc12` [Compound I-130, N-(2-(1H-Indol-3-yl)ethyl)-2-(difluoromethoxy)-N-methylethan-1-amine]: under “RFU=Fmax−Fmin (Table 47)”, the “RFU@10 μM” value is 163 RFU.
Take `COc1ccc2[nH]cc(CCN3CC[C@@H](OC(F)F)C3)c2c1` [(R) I-67, (R)-3-(2-(3-(Difluoromethoxy)pyrrolidin-1-yl)ethyl)-5-methoxy-1H-indole]: the pEC50 is 5.80. The “RFU@10 μM” value (RFU=Fmax−Fmin (Table 47)) is reported as 3,988 RFU.
Compound `CSc1ccc2[nH]cc(CCN(C(C)C)C(C)C)c2c1` [Compound I-17, N-Isopropyl-N-(2-(5-(methylthio)-1H-indol-3-yl)ethyl)propan-2-amine] had a pEC50 of 5.47. Moreover, the “RFU@10 μM” value (RFU=Fmax−Fmin (Table 18)) was 2,289 RFU.
The corresponding values for `CCN(CC)CCc1c[nH]c2ccc(SC)cc12` [Compound I-12, N,N-Diethyl-2-(5-(methylthio)-1H-indol-3-yl)ethan-1-amine] are 6.17 and 3,735 RFU.
`CN(C)CCc1c[nH]c2ccccc12` [DMT]: the “RFU@10 μM” value is, setting by setting: (RFU=Fmax−Fmin (Table 18)) 204 RFU; (RFU=Fmax−Fmin (Table 47)) 204 RFU.
`COc1ccc2[nH]cc(CCN3CC[C@H](OC(F)F)C3)c2c1` [(S) I-67, (S)-3-(2-(3-(Difluoromethoxy)pyrrolidin-1-yl)ethyl)-5-methoxy-1H-indole]: the pEC50 is 6.73. The “RFU@10 μM” value (RFU=Fmax−Fmin (Table 47)) is 3,930 RFU.
`CSc1ccc2[nH]cc(CCN(C)C(C)C)c2c1` [Compound I-19, N-Methyl-N-(2-(5-(methylthio)-1H-indol-3-yl)ethyl)propan-2-amine] gave a pEC50 of 5.41. Further, the “RFU@10 μM” value (RFU=Fmax−Fmin (Table 18)) was 2,161 RFU.
With `CN(C)CCc1c[nH]c2ccc(OCCOC(F)F)cc12` [Compound I-128, 2-(5-(2-(Difluoromethoxy)ethoxy)-1H-indol-3-yl)-N,N-dimethylethan-1-amine], under “RFU=Fmax−Fmin (Table 47)”, the “RFU@10 μM” value was 314 RFU.
In turn, `[2H]C([2H])([2H])N(CCc1c[nH]c2ccc(SC)cc12)C([2H])([2H])[2H]` [Compound I-1, N,N-Bis(methyl-d3)-2-(5-(methylthio)-1H-indol-3-yl)ethan-1-amine] had a pEC50 of 6.03. Under “RFU=Fmax−Fmin (Table 18)”, the “RFU@10 μM” value is reported as 2,858 RFU.
The compound `COc1ccc2[nH]cc(CCN3CC[C@@H](OC)C3)c2c1` [(R) I-66, (R)-5-methoxy-3-(2-(3-methoxypyrrolidin-1-yl)ethyl)-1H-indole] had a pEC50 of 6.01. Also, the “RFU@10 μM” value (RFU=Fmax−Fmin (Table 47)) was 3,690 RFU.
The compound `CCN(C)CCc1c[nH]c2ccc(SC)cc12` [Compound I-13, N-Ethyl-N-methyl-2-(5-(methylthio)-1H-indol-3-yl)ethan-1-amine] showed a pEC50 of 6.16. In addition, the “RFU@10 μM” value (RFU=Fmax−Fmin (Table 18)) was 4,279 RFU.
